Experimental data from ChEMBL document CHEMBL1201862, “PubChem BioAssay data set” (2004).
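Values below derive from 48-hour exposures of cells grown in 96-well plates, with endpoints linearly interpolated between the two concentrations bracketing the appropriate inhibition level. GI50 is the concentration that inhibits growth by half.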 The source made the active and inactive calls. No stated cut-off is given here; in the data, active = GI50 up to about 1.1 µM and inactive = higher.

Tests used:
Test in all cases: NCI-60 cell line screen, 48 h
ACHN = test system: ACHN
BT-549 = test system: BT-549
HCT-15 = test system: HCT-15
HOP-62 = test system: HOP-62
LOX IMVI = test system: LOX IMVI
MDA-MB-231 = test system: MDA-MB-231
MOLT-4 = test system: MOLT-4
NCI-H460 = test system: NCI-H460
NCI-H522 = test system: NCI-H522
NCI/ADR-RES = test system: NCI/ADR-RES
OVCAR-3 = test system: OVCAR-3
OVCAR-4 = test system: OVCAR-4
SF-295 = test system: SF-295
SK-MEL-28 = test system: SK-MEL-28
SK-OV-3 = test system: SK-OV-3
SNB-19 = test system: SNB-19
COLO 205 = test system: COLO 205
IGROV-1 = test system: IGROV-1
SK-MEL-2 = test system: SK-MEL-2

Row | SMILES | GI50 (ACHN) | GI50 (BT-549) | GI50 (HCT-15) | GI50 (HOP-62) | GI50 (LOX IMVI) | GI50 (MDA-MB-231) | GI50 (MOLT-4) | GI50 (NCI-H460) | GI50 (NCI-H522) | GI50 (NCI/ADR-RES) | GI50 (OVCAR-3) | GI50 (OVCAR-4) | GI50 (SF-295) | GI50 (SK-MEL-28) | GI50 (SK-OV-3) | GI50 (SNB-19) | GI50 (COLO 205) | GI50 (IGROV-1) | GI50 (SK-MEL-2)
1 | C/C=C/C[C@@H](C)C(=O)C1C(=O)N[C@@H](C(C)C)C(=O)N(C)CC(=O)N(C)[C@@H](CC(C)C)C(=O)N[C@@H](C(C)C)C(=O)N(C)[C@@H](CC(C)C)C(=O)N[C@@H](C)C(=O)N[C@@H](C)C(=O)N(C)[C@@H](CC(C)C)C(=O)N(C)[C@@H](CC(C)C)C(=O)N(C)[C@@H](C(C)C)C(=O)N1C (stereo partly drawn) | 4.4 µM (inactive) | 4.98 µM (inactive) | 5.51 µM | 6.47 µM (inactive) | 2.82 µM (inactive) | 6.17 µM (inactive) | 2.35 µM (inactive) | 6.01 µM (inactive) | 4.19 µM (inactive) | 2.74 µM (inactive) | 4.09 µM (inactive) | 2.74 µM (inactive) | 7.28 µM (inactive) | 6.37 µM (inactive) | > 20.5 µM (inactive) | 14 µM (inactive) |  |  | 
2 | C[C@]12CCC3c4ccc(O)cc4CC[C@H]3C1CC(=O)NC2=O (stereo partly drawn) | > 10 µM (inactive) | > 10 µM (inactive) | > 10 µM | > 10 µM (inactive) | > 10 µM (inactive) | > 10 µM (inactive) | > 10 µM (inactive) | > 10 µM (inactive) |  | > 10 µM (inactive) | > 10 µM (inactive) | > 10 µM (inactive) | > 10 µM (inactive) | > 10 µM (inactive) | > 10 µM (inactive) | > 10 µM (inactive) | > 10 µM (inactive) | > 10 µM (inactive) | > 10 µM (inactive)
3 | N=C(N)N/N=C\c1c(-c2cccc([N+](=O)[O-])c2)nc2sc(Cl)cn12 | 29.2 µM (inactive) | 2.39 µM (inactive) | 4.07 µM |  | 3.7 µM (inactive) | 2.74 µM (inactive) | 2 µM (inactive) | 2.67 µM (inactive) | 1.98 µM (inactive) | > 100 µM (inactive) | 3.24 µM (inactive) | 1.54 µM (inactive) | 2.31 µM (inactive) | 2.21 µM (inactive) |  | 2.45 µM (inactive) | 1.93 µM (inactive) | 1.8 µM (inactive) | 1.96 µM (inactive)
4 | CCCCC(=O)/C=c1/cc(C)[nH]c2cccc3cnn1c32 | > 100 µM (inactive) | > 100 µM (inactive) | > 100 µM | > 100 µM (inactive) | > 100 µM (inactive) | > 100 µM (inactive) | > 100 µM (inactive) |  | > 100 µM (inactive) | > 100 µM (inactive) | > 100 µM (inactive) | > 100 µM (inactive) | > 100 µM (inactive) | > 100 µM (inactive) | > 100 µM (inactive) | > 100 µM (inactive) | > 100 µM (inactive) | > 100 µM (inactive) | > 100 µM (inactive)
5 | CN(C)c1nc(-c2ccccc2)c(C(=O)c2c[nH]c3ccccc23)s1 | 30.5 µM (inactive) | > 100 µM (inactive) | 3.9 µM | 15.1 µM (inactive) | 6.49 µM (inactive) | 14.5 µM (inactive) | 6.62 µM (inactive) | 3.55 µM (inactive) | 2.76 µM (inactive) | 3.06 µM (inactive) | 5.04 µM (inactive) | 17.4 µM (inactive) | 3.92 µM (inactive) | > 35.2 µM (inactive) | 7.6 µM (inactive) | 14.8 µM (inactive) | 4.78 µM (inactive) | 3.89 µM (inactive) | 
6 | Cc1c(S(=O)(=O)c2ccccc2)c(N)n(CCN(C)C)c1C | > 100 µM (inactive) | 36.1 µM (inactive) | > 100 µM |  |  | > 100 µM (inactive) | > 100 µM (inactive) | > 100 µM (inactive) | > 100 µM (inactive) | > 100 µM (inactive) | > 100 µM (inactive) | > 100 µM (inactive) | > 100 µM (inactive) | > 100 µM (inactive) | > 100 µM (inactive) | > 100 µM (inactive) | > 100 µM (inactive) | > 100 µM (inactive) | > 100 µM (inactive)
7 | C/C(=N\n1c(Cc2ccccc2)n[nH]c1=O)c1ccccc1 | > 100 µM (inactive) | > 100 µM (inactive) | > 100 µM |  | > 100 µM (inactive) | > 100 µM (inactive) | > 100 µM (inactive) |  | > 100 µM (inactive) | > 100 µM (inactive) |  | > 100 µM (inactive) |  | > 100 µM (inactive) |  | > 100 µM (inactive) | > 100 µM (inactive) | > 100 µM (inactive) | > 100 µM (inactive)
8 | O=S(=O)(Oc1ccc2ccccc2c1-c1c(OS(=O)(=O)C(F)(F)F)ccc2ccccc12)C(F)(F)F | 2.75 µM (inactive) | > 100 µM (inactive) | 32.4 µM | > 100 µM (inactive) |  | 42.7 µM (inactive) | 12.8 µM (inactive) | 20 µM (inactive) | 37.7 µM (inactive) | 84.5 µM (inactive) | 41.8 µM (inactive) | 4.2 µM (inactive) | > 100 µM (inactive) | > 100 µM (inactive) | > 100 µM (inactive) | > 100 µM (inactive) | > 100 µM (inactive) | > 100 µM (inactive) | > 100 µM (inactive)
9 | O=[N+]([O-])c1ccc(N/N=C2/CC3=C2CCCCCCCCCC3)c([N+](=O)[O-])c1 | > 100 µM (inactive) | > 100 µM (inactive) | > 100 µM | > 100 µM (inactive) |  | 32.7 µM (inactive) | > 100 µM (inactive) | > 100 µM (inactive) | > 100 µM (inactive) | > 100 µM (inactive) | > 100 µM (inactive) | > 100 µM (inactive) | > 100 µM (inactive) | > 100 µM (inactive) | > 100 µM (inactive) | > 100 µM (inactive) | > 100 µM (inactive) | > 100 µM (inactive) | > 100 µM (inactive)
10 | CCOc1ccc(N/C(=C(/C(Cl)=C(/Cl)Nc2ccccc2)[N+](=O)[O-])n2nnc3ccccc32)cc1 | 25.8 µM (inactive) | 13.3 µM (inactive) | 12.8 µM | 24.5 µM (inactive) |  | 24.5 µM (inactive) | 14.8 µM (inactive) | 27 µM (inactive) | 14 µM (inactive) | 20 µM (inactive) | 24.1 µM (inactive) | 42.5 µM (inactive) | 51.3 µM (inactive) | 22.8 µM (inactive) | 40 µM (inactive) | 30.1 µM (inactive) | 20.7 µM (inactive) |  | 26.3 µM (inactive)
11 | O=C(N/C(=C/c1ccc(Cl)cc1)c1nc2ccccc2c(=O)n1Nc1ccc([N+](=O)[O-])cc1[N+](=O)[O-])c1ccccc1 |  | > 100 µM (inactive) | > 100 µM | > 100 µM (inactive) | > 100 µM (inactive) | > 100 µM (inactive) | > 100 µM (inactive) | > 100 µM (inactive) | > 100 µM (inactive) | > 100 µM (inactive) | > 100 µM (inactive) | > 100 µM (inactive) | > 100 µM (inactive) | > 100 µM (inactive) | > 100 µM (inactive) | > 100 µM (inactive) | > 100 µM (inactive) | > 100 µM (inactive) | 
